Source: patent US7452908B2, “Amide derivatives” (Banyu Pharmaceutical Co., Ltd., priority 1999, dated 2008)

What was measured:
[1] = target: T1, human m4 muscarinic acetylcholine receptor expressed in CHO cells (Homo sapiens, UniProt P08173); assay: Inhibition of [3H]-N-methylscopolamine binding to muscarinic m4 receptor; settings: 0.2 nM [3H]-N-methylscopolamine
T1 construct: purchased Receptor Biology, Inc; host or cells: CHO cells
T1 sequence (P08173 1-479): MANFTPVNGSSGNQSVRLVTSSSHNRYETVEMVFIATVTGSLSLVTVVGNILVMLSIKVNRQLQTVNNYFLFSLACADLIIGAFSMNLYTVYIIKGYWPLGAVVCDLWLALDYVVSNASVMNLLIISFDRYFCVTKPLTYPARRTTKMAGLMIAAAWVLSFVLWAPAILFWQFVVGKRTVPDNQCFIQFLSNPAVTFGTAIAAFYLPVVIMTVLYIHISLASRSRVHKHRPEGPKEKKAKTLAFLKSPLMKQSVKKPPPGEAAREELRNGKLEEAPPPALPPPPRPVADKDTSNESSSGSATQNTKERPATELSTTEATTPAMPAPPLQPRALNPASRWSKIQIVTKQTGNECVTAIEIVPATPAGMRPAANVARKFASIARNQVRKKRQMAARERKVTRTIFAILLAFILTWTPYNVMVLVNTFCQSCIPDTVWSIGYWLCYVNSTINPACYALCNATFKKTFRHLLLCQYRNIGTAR
Experimental: These tests were performed according to a modification of the method of Hargreaves, et al. (Br. J. Pharmacol. 107: 494-501, 1992). Namely, muscarinic acetylcholine receptors of human m1, m2, m3, m4 and m5 expressed in CHO cells (Receptor Biology, Inc.) were incubated with 0.2 nM [^3H]-N-methylscopolamine (82Ci/mmol, New England Nuclear, Inc.) and a test compound to be tested in 0.5 ml of 50 mM Tris-HCl, 10 mM MgCl2, 1 mM EDTA solution (pH 7.4) for 120 minutes at room temperature (about 20-25° C.), followed by suction filtration over a glass filter (UniFilter plate-GF/C; Packard). Then the filter was washed four times with 1 ml of ice-cold Tris-HCl buffer and dried at 50° C. for an hour. After adding a scintillator (Microscinti 0; Packard), the radioactivity of [^3H]-N-methylscopolamine binding to the filter was counted with a microplate scintillation counter (TopCount™; Packard). Non-specific receptor binding of [^3H]-N-methylscopolamine was measured by adding 1 μM N-methylscopolamine.

[2] = target: T2, muscarinic M3 receptor (Rattus norvegicus, UniProt P08483); assay: Antagonism to muscarinic M3 receptor in vivo: acetylcholine-induced airway resistance-increasing reaction in rats; settings: rat, iv, rats, acetylcholine (50 μg/kg) 5 minutes after test compound; read-out: ED50 Airway constriction M3
T2 construct: from tissue; host or cells: whole animal, male SD rats (in vivo)
T2 sequence (P08483 whole entry): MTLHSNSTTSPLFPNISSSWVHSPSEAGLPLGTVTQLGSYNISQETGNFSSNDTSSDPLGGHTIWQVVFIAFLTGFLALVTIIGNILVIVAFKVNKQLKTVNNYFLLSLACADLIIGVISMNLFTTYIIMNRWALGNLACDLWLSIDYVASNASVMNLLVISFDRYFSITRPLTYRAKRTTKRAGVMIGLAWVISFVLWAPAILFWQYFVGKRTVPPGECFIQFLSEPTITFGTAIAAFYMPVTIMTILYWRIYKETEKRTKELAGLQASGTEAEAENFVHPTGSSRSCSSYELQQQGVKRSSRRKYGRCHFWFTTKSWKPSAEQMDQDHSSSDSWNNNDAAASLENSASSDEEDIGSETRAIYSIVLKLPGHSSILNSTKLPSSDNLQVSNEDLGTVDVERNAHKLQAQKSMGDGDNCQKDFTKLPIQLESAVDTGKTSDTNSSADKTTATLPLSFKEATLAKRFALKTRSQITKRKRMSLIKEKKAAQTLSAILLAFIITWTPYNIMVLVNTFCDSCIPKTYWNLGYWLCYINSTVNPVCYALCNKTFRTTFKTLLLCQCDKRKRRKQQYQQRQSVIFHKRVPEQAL
Experimental: (§1) Male SD strain rats (weighing 300-500 g) were anesthetized with urethane (1 g/kg) and α-chloralose (50 mg/kg) administered intraperitoneally. The airway and carotid artery of each rat were isolated by laryngotomy and cannulated. The carotid artery cannula was used as the test compound administration route. After suppressing spontaneous respiration by hypodermic administration of succinylcholine (5 mg/body), the rats were transferred into Plethysmograph-box (PLYAN, Buxco) and artificially ventilated under the conditions of ventilation rate of 6 ml/kg per breath and respiration rate of 90 breaths/min., using a pulmotor for small animals (Model 681, Harvard Co.). Measurements of air rate and […], calculation of airway resistance and lung compliance and their recording were conducted with lung function analyzer (Model 6, Buxco). After about 10 minutes' stabilization period, the change in airway resistance induced by intravenous administration of acetylcholine (50 μg/kg) was measured twice at 5 minutes' interval. The change in airway resistance induced by the second acetylcholine administration was recorded as the pre-administration of the tested rat (pre-value). Five (5) minutes afterthe second acetylcholine-induced reaction measurement, the test compound or isotonic sodium chloride solution was intravenously administered. Five (5) minutes thereafter, acetylcholine was administered and whereby induced airway resistance change was measured. In this experiment, one-dosage evaluation was conducted per one animal of the tested rats. The changes in acetylcholine-induced airway resistance-increasing reaction (% of pre-value) caused by the tested compound and isotonic sodium chloride solution were calculated by the following Equation 1: […]
(§2) The inhibitory effect (inhibition ratio) of each test compound on the acetylcholine-induced airway resistance-increasing reaction was determined according to the following Equation 2.
(§3) Fifty (50)% inhibition dose (ED50; μg/kg) was calculated from the inhibition ratio of each dose of the tested compound.

[3] = tested on: muscarinic M3 receptor; assay: as above; set-up: species or system rat; settings: for Selectivity M1/M3 (in vivo): ratio of ED50 M1 to ED50 M3, rats i.v.; for Selectivity M2/M3 (in vivo): ratio of ED50 M2 to ED50 M3, rats i.v.
Experimental: as §1, §2, §3

[4] = target: T3, M3 receptor (Canis lupus familiaris, UniProt A0A8I3N190); assay: Antagonism to M3 receptor: bronchodilation in anesthetized dogs (methacholine provocation test); type: in vivo, beagle dogs; settings: inhalation of 1 mg/ml for 10 minutes, methacholine threshold four hours after administration
T3 construct: from tissue; host or cells: whole animal, male beagle dogs (in vivo, airway)
T3 sequence (A0A8I3N190 1-590): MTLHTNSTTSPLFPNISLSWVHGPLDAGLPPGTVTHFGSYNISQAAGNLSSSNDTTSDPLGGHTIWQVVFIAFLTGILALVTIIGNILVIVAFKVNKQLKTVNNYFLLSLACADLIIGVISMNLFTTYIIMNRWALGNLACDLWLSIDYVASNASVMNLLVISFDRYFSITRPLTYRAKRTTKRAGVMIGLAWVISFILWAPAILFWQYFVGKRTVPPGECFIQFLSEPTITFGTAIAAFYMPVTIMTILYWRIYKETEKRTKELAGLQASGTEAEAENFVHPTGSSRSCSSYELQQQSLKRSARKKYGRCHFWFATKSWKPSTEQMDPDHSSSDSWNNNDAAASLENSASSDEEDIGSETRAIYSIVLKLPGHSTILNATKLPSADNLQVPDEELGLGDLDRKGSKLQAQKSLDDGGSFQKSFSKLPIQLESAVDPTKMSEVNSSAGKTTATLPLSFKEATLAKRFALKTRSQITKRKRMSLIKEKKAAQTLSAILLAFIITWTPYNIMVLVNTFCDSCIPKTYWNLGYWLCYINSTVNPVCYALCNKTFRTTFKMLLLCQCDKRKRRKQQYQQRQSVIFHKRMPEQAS
Experimental: The bronchodilation action of inhaled test compound was evaluated by measuring the compounds' inhibitory action on respiratory resistance-increasing reaction induced by a methacholine provocation test. For the experiment, 12 to 36 months old male beagle dogs (weighing 10-15 kg) were used. After being anesthetized by intravenous pentobarbital administration (30 mg/kg), the dogs were intubated cannulae in their trachea. After their respiration became stable, the cannulae were connected with Astograph (TCK-6100H, Chest) and a methacholine provocation test by 3 Hz oscillation method was conducted. […] The methacholine concentration at which the respiratory resistance increased to twice the initial value was recorded as the methacholine reaction threshold value. Before evaluating the test compounds, the methacholine reaction threshold value^1) under no drug treatment was measured at least twice at a week's interval, to select the dogs showing reproducible reaction.
The inhaling administration of each test compound (1 mg/ml) was conducted for 10 minutes under pentobarbital anesthetization (30 mg/kg, i.v.), with the nebulizer in the Astograph. […] The bronchodilator activity (shift value) of each tested compound was determined according to the following equation: […]

SMILES | Ki [1] [nM] | ED50 [2] [µg/kg] | Selectivity M1/M3 (in vivo) [3] [times] | Selectivity M2/M3 (in vivo) [3] [times] | Shift (fold) Airway constriction M3 [4] [fold]
O=C(CCNC(=O)CNC(=O)CC(c1ccccc1)(c1ccccc1)c1ccccc1)NC[C@H]1CCCN(CC2CCCCC2)C1 [Example 12, N-{2-(3-{((3R)-1-cyclohexylmethyl-3-piperidyl)methyl}amino-3-oxopropyl)amino-2-oxoethyl}-3,3,3-triphenyloropanamide] | 18 | 15 | >200 | 100 | –
CC[N+]1(CC)CCC[C@H](CNC(=O)[C@H]2CCCN2C(=O)[C@@H]2C[C@@H](O)CN2C(=O)CC(c2ccccc2)(c2ccccc2)c2ccccc2)C1.[Cl-] [Example 133, (3R)-1,1-diethyl-3-({({(2R)-1-({(2S,4R)-4-hydroxy-1-(3,3,3-triphenylpropanoyl)-2-pyrrolidinyl}carbonyl)-2-pyrrolidinyl}carbonyl)amino}methyl)piperidinium chloride] | 140 | 2.1 | >143 | 54 | 20.2
